Patent US20110190503A1, “Thiazolopyridin-2-yloxy-phenyl and thiazolopyrazin-2-yloxy-phenyl amines as modulators of leukotriene A4 hydrolase” (Janssen Pharmaceutical NV, priority 2008, published 2011)
Where a name gives a salt, the structure may show the parent alone.

Target: T1, recombinant human LTA4 hydrolase (rhLTA4H) (Homo sapiens, UniProt P09960)
T1 construct: made in house; host or cells: Spodoptera frugiperda (Sf-9) cells, recombinant baculovirus (pFastBac1)
T1 sequence (P09960 1-611): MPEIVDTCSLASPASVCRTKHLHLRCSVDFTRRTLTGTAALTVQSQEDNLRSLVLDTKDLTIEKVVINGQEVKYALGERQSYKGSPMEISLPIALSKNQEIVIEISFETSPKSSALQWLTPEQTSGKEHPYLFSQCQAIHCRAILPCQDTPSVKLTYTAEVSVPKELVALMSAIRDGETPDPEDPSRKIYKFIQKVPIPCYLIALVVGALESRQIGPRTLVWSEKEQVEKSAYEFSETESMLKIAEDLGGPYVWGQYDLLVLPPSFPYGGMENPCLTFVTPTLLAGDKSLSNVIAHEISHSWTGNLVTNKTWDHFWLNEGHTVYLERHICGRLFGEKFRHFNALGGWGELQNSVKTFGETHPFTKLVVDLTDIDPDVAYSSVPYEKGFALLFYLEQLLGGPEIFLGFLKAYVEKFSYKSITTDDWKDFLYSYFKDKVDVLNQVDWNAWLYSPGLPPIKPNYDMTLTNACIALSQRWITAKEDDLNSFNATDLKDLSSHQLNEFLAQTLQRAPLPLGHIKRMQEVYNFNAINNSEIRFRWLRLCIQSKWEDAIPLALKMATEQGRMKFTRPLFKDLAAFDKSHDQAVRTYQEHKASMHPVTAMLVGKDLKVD
Assay: Recombinant human LTA4 hydrolase assay for LTA4 hydrolase inhibitor activity
Assay type: biochemical
Conditions: rhLTA4H, LTA4 substrate, LTB4 by immunoassay; single determination or average; read-out: IC50
Method: Assay 1: Recombinant Human LTA4 Hydrolase Assay for LTA4 Hydrolase Inhibitor Activity
Compounds of the present invention were tested for LTA4 hydrolase inhibitor activity against recombinant human LTA4 hydrolase (rhLTA4H). Vectors were prepared and used to express rhLTA4H essentially as follows: LTA4 hydrolase encoding DNA was amplified by polymerase chain reaction (PCR) using a human placental cDNA library as a template. […] The amplified 1.9 kb DNA fragment encoding LTA4 hydrolase was isolated and cloned into the pFastBac1 vector (Invitrogen). Recombinant baculovirus was generated as described by the manufacturer, and used to infect Spodoptera frugiperda (Sf-9) cells. […] The purified enzyme solution was adjusted to contain 0.29 mg/mL LTA4 hydrolase, 50 mM Tris (pH 8.0), 150 mM NaCl, 5 mM dithiothreitol, 50% glycerol, and EDTA-free Complete protease inhibitor cocktail (Roche).
LTA4 substrate was prepared from the methyl ester of LTA4 (Cayman Chemical) by treatment with 67 equiv of NaOH under nitrogen at rt for 40 min. The LTA4 substrate in its free acid form was kept frozen at −80° C. until needed. Each compound was diluted to different concentrations in assay buffer (from Assay Designs) containing 10% DMSO. A 25-μL aliquot of each compound dilution was incubated for 10 min at rt with an equal volume of assay buffer containing 10 ng of recombinant human LTA4H. The solution was then adjusted to 200 μL with assay buffer. […] Each reaction was carried out at rt for 30 min. The reaction was stopped by diluting 10 μL of the reaction mixture with 200 μL of assay buffer. LTB4 was quantified in the diluted sample by a commercially available enzyme-linked immunoassay (Cayman Chemical Co.), as recommended by the manufacturer. Positive controls, under essentially identical conditions but without addition of an inhibitor compound, and negative controls, containing all assay components except enzyme, were routinely run in each experiment. IC50 values were determined by nonlinear regression of the activity data at different compound concentrations using Graphpad Prism 4.0, one site binding competition.
The values presented here are the result of a single determination or an average of two or more determinations, as indicated in parentheses following each value. For compounds tested three or more times, the average value is followed by the standard deviation

CS(=O)(=O)N1C[C@H]2C[C@@H]1CN2CCOc1ccc(Oc2nc3ccncc3s2)cc1 [Example 151, 2-(4-{2-[(1R,4R)-5-(Methylsulfonyl)-2,5-diazabicyclo[2.2.1]hept-2-yl]ethoxy}phenoxy)[1,3]thiazolo[5,4-c]pyridine]
IC50: 367 nM

NC(=O)N1C[C@H]2CC[C@@H](C1)N2CCOc1ccc(Oc2nc3ncccc3s2)cc1 [Example 211, meso-8-{2-[4-([1,3]Thiazolo[4,5-b]pyridin-2-yloxy)phenoxy]ethyl}-3,8-diazabicyclo[3.2.1]octane-3-carboxamide]
IC50: 24 nM

c1ccc(CC2CCN(CCOc3ccc(Oc4nc5nccnc5s4)cc3)CC2)cc1 [Example 23, 2-{4-[2-(4-Benzylpiperidin-1-yl)ethoxy]phenoxy}[1,3]thiazolo[4,5-b]pyrazine]
IC50: 160 nM

OC1(c2cccc(C(F)(F)F)c2)CCN(CCOc2ccc(Oc3nc4cccnc4s3)cc2)CC1 [Example 37, 1-{2-[4-([1,3]Thiazolo[5,4-b]pyridin-2-yloxy)phenoxy]ethyl}-4-[3-(trifluoromethyl)phenyl]piperidin-4-ol]
IC50: 160 nM

c1cnc(N2CCN(Cc3ccc(Oc4nc5nccnc5s4)cc3)CC2)nc1 [Example 167, 2-({4-[(4-Pyrimidin-2-ylpiperazin-1-yl)methyl]phenyl}oxy)[1,3]thiazolo[4,5-b]pyrazine]
IC50: 432 nM

CC(=O)N1CCCN(Cc2ccc(Oc3nc4ccncc4s3)cc2)CC1 [Example 226, 2-{4-[(4-Acetyl-1,4-diazepan-1-yl)methyl]phenoxy}[1,3]thiazolo[5,4-c]pyridine]
IC50: 1210 nM

CC(=O)N1CC(CN(C)Cc2ccc(Oc3nc4ncc(Cl)cc4s3)cc2)C1 [Example 247, 1-(1-Acetylazetidin-3-yl)-N-{4-[(6-chloro[1,3]thiazolo[4,5-b]pyridin-2-yl)oxy]benzyl}-N-methylmethanamine]
IC50: 33 nM

Cc1cnc2nc(Oc3ccc(OCCN4CCC(C(=O)N5CCOCC5)CC4)cc3)sc2c1 [Example 145, 6-Methyl-2-(4-{2-[4-(morpholin-4-ylcarbonyl)piperidin-1-yl]ethoxy}phenoxy)[1,3]thiazolo[4,5-b]pyridine]
IC50: 275 nM

CCCN(Cc1ccc(Oc2nc3cnccc3s2)cc1)CC1CC1 [Example 186, N-(Cyclopropylmethyl)-N-{[4-([1,3]thiazolo[4,5-c]pyridin-2-yloxy)phenyl]methyl}propan-1-amine]
IC50: 263 nM

c1ccc(OC2CCN(CCOc3ccc(Oc4nc5ncccc5s4)cc3)CC2)cc1 [Example 8, 2-{4-[2-(4-Phenoxypiperidin-1-yl)ethoxy]phenoxy}[1,3]thiazolo[4,5-b]pyridine]
IC50: 130 nM

c1ccc(CC2CCN(CCc3ccc(Oc4nc5ncccc5s4)cc3)CC2)cc1 [Example 63, 2-{4-[2-(4-Benzylpiperidin-1-yl)ethyl]phenoxy}[1,3]thiazolo[4,5-b]pyridine]
IC50: 16 nM

Cc1ccnc2nc(Oc3ccc(CN4CCC(NC(=O)c5ccncc5)CC4)cc3)sc12 [Example 206, N-(1-{4-[(7-Methyl[1,3]thiazolo[4,5-b]pyridin-2-yl)oxy]benzyl}piperidin-4-yl)pyridine-4-carboxamide]
IC50: 35 nM

CS(=O)(=O)N1C[C@H]2CC[C@@H](C1)N2CCOc1ccc(Oc2nc3ncccc3s2)cc1 [Example 213, meso-2-(4-{2-[3-(Methylsulfonyl)-3,8-diazabicyclo[3.2.1]oct-8-yl]ethoxy}phenoxy)[1,3]thiazolo[4,5-b]pyridine]
IC50: 34 nM

OCC1CN(Cc2ccc(Oc3nc4ncccc4s3)cc2)CCO1 (stereo not shown) [Example 82, {4-[4-([1,3]Thiazolo[4,5-b]pyridin-2-yloxy)benzyl]morpholin-2-yl}methanol]
IC50: 140 nM

O=C1CCN(CCc2ccc(Oc3nc4nccnc4s3)cc2)CCN1 [Example 177, 1-{2-[4-([1,3]Thiazolo[4,5-b]pyrazin-2-yloxy)phenyl]ethyl}-1,4-diazepan-5-one]
IC50: 624 nM

CC(=O)N(C)[C@@H]1C[C@H]2CC[C@@H](C1)N2Cc1ccc(Oc2nc3cccnc3s2)cc1 [Example 228, meso-N-Methyl-N-{(3-exo)-8-[4-([1,3]thiazolo[5,4-b]pyridin-2-yloxy)benzyl]-8-azabicyclo[3.2.1]oct-3-yl}acetamide]
IC50: 135 nM

CC(=O)N1C[C@@H]2C[C@H]1CN2Cc1ccc(Oc2nc3cc(F)cnc3s2)cc1 [Example 123, 2-(4-{[(1S,4S)-5-Acetyl-2,5-diazabicyclo[2.2.1]hept-2-yl]methyl}phenoxy)-6-fluoro[1,3]thiazolo[5,4-b]pyridine]
IC50: 180 nM

O=C1CCCN1C1CCN(Cc2ccc(Oc3nc4cccnc4s3)cc2)CC1 [Example 112, 1-{1-[4-([1,3]Thiazolo[5,4-b]pyridin-2-yloxy)benzyl]piperidin-4-yl}pyrrolidin-2-one]
IC50: 370 nM

c1cncc(OC2CCN(Cc3ccc(Oc4nc5ccncc5s4)cc3)CC2)c1 [Example 248, 2-(4-{[4-(Pyridin-3-yloxy)piperidin-1-yl]methyl}phenoxy)[1,3]thiazolo[5,4-c]pyridine]
IC50: 1160 nM

CC(=O)N1[C@@H]2CC[C@H]1C[C@H](NCCc1ccc(Oc3nc4ncccc4s3)cc1)C2 [Example 214, meso-(3-exo)-8-Acetyl-N-{2-[4-([1,3]thiazolo[4,5-b]pyridin-2-yloxy)phenyl]ethyl}-8-azabicyclo[3.2.1]octan-3-amine]
IC50: 3 nM

NC(=O)N1C[C@H]2C[C@@H]1CN2Cc1ccc(Oc2nc3ncc(Cl)cc3s2)cc1 [Example 191, (1R,4R)-5-({4-[(6-Chloro[1,3]thiazolo[4,5-b]pyridin-2-yl)oxy]phenyl}methyl)-2,5-diazabicyclo[2.2.1]heptane-2-carboxamide]
IC50: 72 nM

NCCCN(Cc1ccc(Oc2nc3ccncc3s2)cc1)CC1CC1 [Example 204, N-(Cyclopropylmethyl)-N-[4-([1,3]thiazolo[5,4-c]pyridin-2-yloxy)benzyl]propane-1,3-diamine hydrochloride]
IC50: 576 nM

c1cnc2sc(Oc3ccc(CCN4CCCCCC4)cc3)nc2n1 [Example 179, 2-{[4-(2-Azepan-1-ylethyl)phenyl]oxy}[1,3]thiazolo[4,5-b]pyrazine]
IC50: 38 nM

Cc1ccnc2sc(Oc3ccc(CN4CCC(C(N)=O)CC4)cc3)nc12 [Example 286, 1-{4-[(7-Methyl[1,3]thiazolo[5,4-b]pyridin-2-yl)oxy]benzyl}piperidine-4-carboxamide]
IC50: > 10000 nM

CC(=O)N1C[C@@H]2C[C@H]1CN2CCc1ccc(Oc2nc3cccnc3s2)cc1 [Example 51, 2-(4-{2-[(1S,4S)-5-Acetyl-2,5-diazabicyclo[2.2.1]hept-2-yl]ethyl}phenoxy)[1,3]thiazolo[5,4-b]pyridine]
IC50: 110 nM

Cc1cnc2nc(Oc3ccc(CCN4CCC(C(=O)N5CCCC5)CC4)cc3)sc2c1 [Example 198, 6-Methyl-2-[(4-{2-[4-(pyrrolidin-1-ylcarbonyl)piperidin-1-yl]ethyl}phenyl)oxy][1,3]thiazolo[4,5-b]pyridine]
IC50: 175 nM

Cc1ccnc2nc(Oc3ccc(CN4CCN(c5ccncc5)CC4)cc3)sc12 [Example 168, 7-Methyl-2-({4-[(4-pyridin-4-ylpiperazin-1-yl)methyl]phenyl}oxy)[1,3]thiazolo[4,5-b]pyridine]
IC50: 647 nM

NC(=O)N[C@@H]1C[C@H]2CC[C@@H](C1)N2Cc1ccc(Oc2nc3nccnc3s2)cc1 [Example 199, meso-1-{(3-exo)-8-[4-([1,3]Thiazolo[4,5-b]pyrazin-2-yloxy)benzyl]-8-azabicyclo[3.2.1]oct-3-yl}urea]
IC50: 42 nM
